# From patent US10736883B2, “Triazole furan compounds as agonists of the APJ receptor” (AMGEN INC., priority 2016, dated 2020)
# Target: APJ receptor (Homo sapiens (Human), UniProt P35414)
# Experiment: [35S]GTPγS binding assay on membranes from CHO cells stably expressing human APJ receptor
# Type: biochemical
# Conditions: membranes of CHO cells stably expressing human APJ receptor, means of several independent experiments, read-out: Activity hAPJ SPA EC50 IP
# Summary of the method: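 Membranes from CHO cells stably expressing human APJ were incubated with 0.2 nM [35S]GTPγS and ligands for 90 min at RT in 20 mM HEPES pH 7.5, 5 mM MgCl2, 200 mM NaCl, 3 μM GDP, 0.1% BSA with WGA PS beads. Nonspecific binding was set with 100 μM GTPγS. EC50 came from non-linear regression.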
# Sequence of APJ receptor (P35414 whole entry): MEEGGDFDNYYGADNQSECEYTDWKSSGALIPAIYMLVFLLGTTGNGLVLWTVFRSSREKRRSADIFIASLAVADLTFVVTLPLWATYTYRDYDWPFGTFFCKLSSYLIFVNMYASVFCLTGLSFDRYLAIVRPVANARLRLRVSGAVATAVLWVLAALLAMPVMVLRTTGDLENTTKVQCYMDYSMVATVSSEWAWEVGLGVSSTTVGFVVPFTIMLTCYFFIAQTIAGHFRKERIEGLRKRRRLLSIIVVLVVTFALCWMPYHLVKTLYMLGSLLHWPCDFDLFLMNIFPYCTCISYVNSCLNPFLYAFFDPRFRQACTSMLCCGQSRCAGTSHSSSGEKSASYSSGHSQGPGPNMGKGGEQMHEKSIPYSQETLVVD
row,Compound,EC50 [nM]
1,"COc1cccc(OC)c1-n1c(NS(=O)(=O)[C@H](C)Cc2ccc(C#N)cn2)nnc1-c1ccc(C)o1 (single isomer, unassigned) [Example 12.0, (2R)-1-(5-cyano-2-pyridinyl)-N-(4-(2,6-dimethoxyphenyl)-5-(5-methyl-2-furanyl)-4H-1,2,4-triazol-3-yl)-2-propanesulfonamide or (2S)-1-(5-cyano-2-pyridinyl)-N-(4-(2,6-dimethoxyphenyl)-5-(5-methyl-2-furanyl)-4H-1,2,4-triazol-3-yl)-2-propanesulfonamide]",0.15
2,"COc1cccc(OC)c1-n1c(NS(=O)(=O)[C@H]2COc3cc(Cl)cnc3C2)nnc1-c1ccco1 (racemic) [Example 181.0, (3R)-7-Chloro-N-(4-(2,6-dimethoxyphenyl)-5-(2-furanyl)-4H-1,2,4-triazol-3-yl)-3,4-dihydro-2H-pyrano[3,2-b]pyridine-3-sulfonamide and (3S)-7-chloro-N-(4-(2,6-dimethoxyphenyl)-5-(2-furanyl)-4H-1,2,4-triazol-3-yl)-3,4-dihydro-2H-pyrano[3,2-b]pyridine-3-sulfonamide]",5.9
3,"COc1cccc(OC)c1-n1c(NS(=O)(=O)[C@H]2CNC[C@H](c3ccc(F)cc3)C2)nnc1-c1ccco1 (single isomer, unassigned) [Example 188.0, (3R,5S)—N-(4-(2,6-Dimethoxyphenyl)-5-(2-furanyl)-4H-1,2,4-triazol-3-yl)-5-(4-fluorophenyl)-3-piperidinesulfonamide or (3S,5R)—N-(4-(2,6-dimethoxyphenyl)-5-(2-furanyl)-4H-1,2,4-triazol-3-yl)-5-(4-fluorophenyl)-3-piperidinesulfonamide]",75
4,"COc1cccc(OC)c1-n1c(NS(=O)(=O)[C@H](C)[C@H](OC)c2ncc(F)cn2)nnc1-c1ccc(C)o1 (single isomer, unassigned) [Example 122.0, (1R,2R)-N-(4-(2,6-dimethoxyphenyl)-5-(5-methylfuran-2-yl)-4H-1,2,4-triazol-3-yl)-1-(5-fluoropyrimidin-2-yl)-1-methoxypropane-2-sulfonamide or (1S,2S)-N-(4-(2,6-dimethoxyphenyl)-5-(5-methylfuran-2-yl)-4H-1,2,4-triazol-3-yl)-1-(5-fluoropyrimidin-2-yl)-1-methoxypropane-2-sulfonamide]",0.22
5,"COc1ncnc(OC)c1-n1c(NS(=O)(=O)[C@@H](C)[C@H](C)c2ccc(Cl)cn2)nnc1-c1ccc(C)o1 [Example 400.0, (2S,3R)-3-(5-chloro-2-pyridinyl)-N-(4-(4,6-dimethoxy-5-pyrimidinyl)-5-(5-methyl-2-furanyl)-4H-1,2,4-triazol-3-yl)-2-butanesulfonamide]",0.1
6,"COc1cccc(OC)c1-n1c(NS(=O)(=O)[C@H](C)[C@H](O)c2ccc(C#N)c(C)n2)nnc1-c1ccc(C)o1 (single isomer, unassigned) [Example 86.0]",0.23
7,"COc1cccc(OC)c1-n1c(NS(=O)(=O)[C@H]2C[C@@H](O)CN(c3ncc(F)cn3)C2)nnc1-c1ccc(C)o1 (single isomer, unassigned) [Example 323.0, (3S,5R)—N-(4-(2,6-Dimethoxyphenyl)-5-(5-methyl-2-furanyl)-4H-1,2,4-triazol-3-yl)-1-(5-fluoro-2-pyrimidinyl)-5-hydroxy-3-piperidinesulfonamide or (3R,5S)—N-(4-(2,6-dimethoxyphenyl)-5-(5-methyl-2-furanyl)-4H-1,2,4-triazol-3-yl)-1-(5-fluoro-2-pyrimidinyl)-5-hydroxy-3-piperidinesulfonamide]",0.2
8,"COc1cccc(OC)c1-n1c(NS(=O)(=O)[C@H]2C[C@@H](O)CN(c3ncc(F)cc3C#N)C2)nnc1-c1ccc(C)o1 (mixture of isomers) [Example 330.0, (3S,5R)-1-(3-Cyano-5-fluoro-2-pyridinyl)-N-(4-(2,6-dimethoxyphenyl)-5-(5-methyl-2-furanyl)-4H-1,2,4-triazol-3-yl)-5-hydroxy-3-piperidinesulfonamide and (3R,5S)-1-(3-cyano-5-fluoro-2-pyridinyl)-N-(4-(2,6-dimethoxyphenyl)-5-(5-methyl-2-furanyl)-4H-1,2,4-triazol-3-yl)-5-hydroxy-3-piperidinesulfonamide]",0.43
9,"COc1ccnc(N2C[C@H](O)C[C@H](S(=O)(=O)Nc3nnc(-c4ccc(C)o4)n3-c3c(OC)cccc3OC)C2)n1 (single isomer, unassigned) [Example 327.0, (3S,5R)—N-(4-(2,6-Dimethoxyphenyl)-5-(5-methyl-2-furanyl)-4H-1,2,4-triazol-3-yl)-5-hydroxy-1-(4-methoxy-2-pyrimidinyl)-3-piperidinesulfonamide or (3R,5S)—N-(4-(2,6-dimethoxyphenyl)-5-(5-methyl-2-furanyl)-4H-1,2,4-triazol-3-yl)-5-hydroxy-1-(4-methoxy-2-pyrimidinyl)-3-piperidinesulfonamide]",0.25
10,"COc1cccc(OC)c1-n1c(NS(=O)(=O)CCc2ccc(C#N)cn2)nnc1-c1ccco1 [Example 35.0, 2-(5-cyano-2-pyridinyl)-N-(4-(2,6-dimethoxyphenyl)-5-(2-furanyl)-4H-1,2,4-triazol-3-yl)ethanesulfonamide]",3.5
11,"COc1ncnc(OC)c1-n1c(NS(=O)(=O)[C@@H](C)[C@H](C)c2ncc(C#N)cn2)nnc1-c1ccc(C)o1 [Example 397.0, (2S,3R)-3-(5-Cyano-2-pyrimidinyl)-N-(4-(4,6-dimethoxy-5-pyrimidinyl)-5-(5-methyl-2-furanyl)-4H-1,2,4-triazol-3-yl)-2-butanesulfonamide]",0.51
12,"COc1cccc(OC)c1-n1c(NS(=O)(=O)CCc2ncc(Cl)cc2C2=CCNCC2)nnc1-c1ccco1 [Example 220.0, 2-(5-Chloro-1′,2′,3′,6′-tetrahydro-3,4′-bipyridin-2-yl)-N-(4-(2,6-dimethoxyphenyl)-5-(2-furanyl)-4H-1,2,4-triazol-3-yl)ethanesulfonamide]",0.27
13,"COc1cccc(OC)c1-n1c(NS(=O)(=O)c2cccc(CO)c2)nnc1-c1ccc(C)o1 [Example 409.0, N-(4-(2,6-dimethoxyphenyl)-5-(5-methyl-2-furanyl)-4H-1,2,4-triazol-3-yl)-3-(hydroxymethyl)benzenesulfonamide]",43
14,"COc1cccc(OC)c1-n1c(NS(=O)(=O)C[C@@H](C)c2ncc(F)cn2)nnc1-c1ccc(C)o1 (single isomer, unassigned) [Example 126.0, (S)—N-(4-(2,6-Dimethoxyphenyl)-5-(5-methylfuran-2-yl)-4H-1,2,4-triazol-3-yl)-2-(5-fluoropyrimidin-2-yl)propane-1-sulfonamide or (R)—N-(4-(2,6-dimethoxyphenyl)-5-(5-methylfuran-2-yl)-4H-1,2,4-triazol-3-yl)-2-(5-fluoropyrimidin-2-yl)propane-1-sulfonamide]",0.45
15,"(1R,2S)-1-(5-chloro-2-pyrimidinyl)-N-(4-(2,6-dimethoxyphenyl)-5-(5-methyl-2-furanyl)-4H-1,2,4-triazol-3-yl)-1-hydroxy-2-propanesulfonamide or (1S,2R)-1-(5-chloro-2-pyrimidinyl)-N-(4-(2,6-dimethoxyphenyl)-5-(5-methyl-2-furanyl)-4H-1,2,4-triazol-3-yl)-1-hydroxy-2-propanesulfonamide [Example 216.0]",0.23
16,"C[C@@H](Cc1ncc(F)cn1)S(=O)(=O)Nc1nnc(-c2ccco2)n1-c1ccccc1F (racemic) [Example 312.0, (2R)—N-(4-(2-Fluorophenyl)-5-(2-furanyl)-4H-1,2,4-triazol-3-yl)-1-(5-fluoro-2-pyrimidinyl)-2-propanesulfonamide and (2S)—N-(4-(2-fluorophenyl)-5-(2-furanyl)-4H-1,2,4-triazol-3-yl)-1-(5-fluoro-2-pyrimidinyl)-2-propanesulfonamide]",210
17,"COc1ccc(-n2c(NS(=O)(=O)[C@@H](C)Cc3ncc(F)cn3)nnc2-c2ccco2)c(OC)c1 (mixture of isomers) [Example 315.0, (2R)—N-(4-(2,4-Dimethoxyphenyl)-5-(2-furanyl)-4H-1,2,4-triazol-3-yl)-1-(5-fluoro-2-pyrimidinyl)-2-propanesulfonamide and (2S)—N-(4-(2,4-dimethoxyphenyl)-5-(2-furanyl)-4H-1,2,4-triazol-3-yl)-1-(5-fluoro-2-pyrimidinyl)-2-propanesulfonamide]",270
18,"COc1cccc(OC)c1-n1c(NS(=O)(=O)CCN2C(=O)N(C)CC[C@@H]2C)nnc1-c1ccc(C)o1 (single isomer, unassigned) [Example 164.0, N-(4-(2,6-Dimethoxyphenyl)-5-(5-methyl-2-furanyl)-4H-1,2,4-triazol-3-yl)-2-((6S)-3,6-dimethyl-2-oxotetrahydro-1(2H)-pyrimidinyl)ethanesulfonamide or N-(4-(2,6-dimethoxyphenyl)-5-(5-methyl-2-furanyl)-4H-1,2,4-triazol-3-yl)-2-((6R)-3,6-dimethyl-2-oxotetrahydro-1(2H)-pyrimidinyl)ethanesulfonamide]",0.74
19,"COc1ncnc(OC)c1-n1c(NS(=O)(=O)[C@@H](C)[C@H](C)c2ncc(Cl)cn2)nnc1-c1ccc(C)o1 [Example 383.0, (2S,3R)-3-(5-Chloropyrimidin-2-yl)-N-(4-(4,6-dimethoxypyrimidin-5-yl)-5-(5-methylfuran-2-yl)-4H-1,2,4-triazol-3-yl)butane-2-sulfonamide]",0.06
20,"COc1cccc(OC)c1-n1c(NS(=O)(=O)[C@@H](C)[C@@H](O)c2ccc(C#N)cn2)nnc1-c1ccc(C)o1 (single isomer, unassigned) [Example 10.0, (1S,2S)-1-(5-cyano-2-pyridinyl)-N-(4-(2,6-dimethoxyphenyl)-5-(5-methyl-2-furanyl)-4H-1,2,4-triazol-3-yl)-1-hydroxy-2-propanesulfonamide or (1R,2R)-1-(5-cyano-2-pyridinyl)-N-(4-(2,6-dimethoxyphenyl)-5-(5-methyl-2-furanyl)-4H-1,2,4-triazol-3-yl)-1-hydroxy-2-propanesulfonamide]",0.11
